The source of these data is ChEMBL document CHEMBL4359841, “Late-Stage Functionalization of Platensimycin Leading to Multiple Analogues with Improved Antibacterial Activity in Vitro and in Vivo” (2019).

In brackets after ≈: the same amount, converted by molar mass. Activity calls are given as the source filed them. Unless noted, the rule behind the calls is not given here.

Assay [1] relates to Staphylococcus aureus. Kind of assay: Inhibition of FabB/FabF in methicillin-resistant Staphylococcus aureus assessed as antibacterial activity at 5 ug/disk after 18 hrs by agar disk diffusion method. In general terms: A growth-free zone around the sample is the usual read-out of agar diffusion tests.
Assay [2] relates to Staphylococcus aureus. Description: Inhibition of FabB/FabF in methicillin-resistant Staphylococcus aureus assessed as antibacterial activity at 2 ug/disk after 18 hrs by agar disk diffusion method.
Assay [3] concerns Staphylococcus aureus. Kind of assay: Inhibition of FabB/FabF in methicillin-resistant Staphylococcus aureus 2957 clinical isolate assessed as antibacterial activity after 16 hrs by agar dilution method. For orientation: Agar dilution tests growth on a series of plates holding different concentrations.
The test system of assay [4] is Staphylococcus aureus. Description: Inhibition of FabB/FabF in methicillin-resistant Staphylococcus aureus 3046 clinical isolate assessed as antibacterial activity after 16 hrs by agar dilution method.
The test system of assay [5] is Staphylococcus aureus. Description: Inhibition of FabB/FabF in methicillin-resistant Staphylococcus aureus 3071 clinical isolate assessed as antibacterial activity after 16 hrs by agar dilution method.
Assay [6] has as its system Staphylococcus aureus. Description: Inhibition of FabB/FabF in methicillin-resistant Staphylococcus aureus 3074 clinical isolate assessed as antibacterial activity after 16 hrs by agar dilution method.
The subject of assay [7] is Staphylococcus aureus. Kind of assay: Inhibition of FabB/FabF in methicillin-resistant Staphylococcus aureus 3095 clinical isolate assessed as antibacterial activity after 16 hrs by agar dilution method.
In assay [8] the test system is Staphylococcus aureus. Description: Inhibition of FabB/FabF in methicillin-resistant Staphylococcus aureus 3104 clinical isolate assessed as antibacterial activity after 16 hrs by agar dilution method.
Assay [9] relates to Staphylococcus aureus. Kind of assay: Inhibition of FabB/FabF in methicillin-resistant Staphylococcus aureus 3105 clinical isolate assessed as antibacterial activity after 16 hrs by agar dilution method.
For assay [10], the system named is Staphylococcus aureus. Kind of assay: Inhibition of FabB/FabF in methicillin-resistant Staphylococcus aureus 3112 clinical isolate assessed as antibacterial activity after 16 hrs by agar dilution method.
The test system of assay [11] is Staphylococcus aureus. Description: Inhibition of FabB/FabF in methicillin-resistant Staphylococcus aureus 3116 clinical isolate assessed as antibacterial activity after 16 hrs by agar dilution method.
For assay [12], the system named is Staphylococcus aureus. Kind of assay: Inhibition of FabB/FabF in methicillin-resistant Staphylococcus aureus 3163 clinical isolate assessed as antibacterial activity after 16 hrs by agar dilution method.
The subject of assay [13] is Staphylococcus aureus. Description: Inhibition of FabB/FabF in methicillin-sensitive Staphylococcus aureus 2952 clinical isolate assessed as antibacterial activity after 16 hrs by agar dilution method.
The test system of assay [14] is Staphylococcus aureus. Description: Inhibition of FabB/FabF in methicillin-sensitive Staphylococcus aureus 2956 clinical isolate assessed as antibacterial activity after 16 hrs by agar dilution method.
Assay [15] concerns Staphylococcus aureus. Description: Antibacterial activity against methicillin-resistant Staphylococcus aureus infected in C57BL/6J mouse model of peritonitis assessed as mouse survival at 20 mg/kg, ip dosed at 1 hr and 5 hrs post infection and measured for 7 days relative to control. In kind it is functional.
The subject of assay [16] is Staphylococcus aureus. Description: Antibacterial activity against methicillin-resistant Staphylococcus aureus infected in C57BL/6J mouse model of peritonitis assessed as mouse survival at 30 mg/kg, ip dosed at 1 hr and 5 hrs post infection and measured for 7 days relative to control. In kind it is functional.
The test system of assay [17] is Staphylococcus aureus. Kind of assay: Antibacterial activity against methicillin-resistant Staphylococcus aureus infected in C57BL/6J mouse model of peritonitis assessed as mouse survival at 30 to 50 mg/kg, po administered via gavage measured after 2 days. In kind it is functional, organism-based.
In assay [18] the test system is Staphylococcus aureus. Kind of assay: Antibacterial activity against methicillin-resistant Staphylococcus aureus infected in BALB/c mouse model of skin infection assessed as bacterial load in skin lesions at 2 mg administered topically as ointment twice daily for 7 days and measured at 24 hrs post last dose (7.9 +/- 0.9 x 10^8 CFU/g). In kind it is functional.
Assay [19] relates to Staphylococcus aureus. Description: Antibacterial activity against methicillin-resistant Staphylococcus aureus infected in BALB/c mouse model of skin wound assessed as reduction in appearance of secondary scald at 2 mg administered topically as ointment twice daily for 7 days and measured after 24 hrs by visual inspection method. It is filed as functional, organism-based.
Assay [20] relates to Staphylococcus aureus. Kind of assay: Antibacterial activity against methicillin-resistant Staphylococcus aureus infected in BALB/c mouse model of skin wound assessed as reduction in detachment of epidermis from dermis at 2 mg administered topically as ointment twice daily for 7 days and measured after 24 hrs by visual inspection method. In kind it is functional, organism-based.

Assay [21] has as its system Staphylococcus aureus. Description: Antibacterial activity against methicillin-resistant Staphylococcus aureus infected in BALB/c mouse model of skin wound assessed as retainment of dermis layers at 2 mg administered topically as ointment twice daily for 7 days and measured and after 24 hrs by HE staining analysis. In kind it is functional, organism-based.
Assay [22] deals with Staphylococcus aureus. Kind of assay: Antibacterial activity against methicillin-resistant Staphylococcus aureus infected in BALB/c mouse model of skin wound assessed as retainment of fat layers at 2 mg administered topically as ointment twice daily for 7 days and measured after 24 hrs by HE staining analysis. In kind it is functional, organism-based.

For the compound `C[C@]12C[C@@]34C=C(SC5CCCCC5)C(=O)[C@@](C)(CCC(=O)Nc5c(O)ccc(C(=O)O)c5O)[C@@H]3[C@H](C[C@@H]1C4)O2`, in the assay with Staphylococcus aureus [1], the “antibacterial activity (disk diffusion, qualitative)” value was “Active”. The inhibition entry with Staphylococcus aureus [2], in the assay with Staphylococcus aureus [3], with Staphylococcus aureus [4], in the assay on Staphylococcus aureus [5], in the assay with Staphylococcus aureus [6] and in the assay on Staphylococcus aureus [7] was “Active” each time. Also, the inhibition entry in the assay on Staphylococcus aureus [8], in the assay with Staphylococcus aureus [9], in the assay with Staphylococcus aureus [10], with Staphylococcus aureus [11], in the assay with Staphylococcus aureus [12] and in the assay on Staphylococcus aureus [13] was “Active” each time. The inhibition result in the assay on Staphylococcus aureus [14] was “Active”. In addition, the survival at 20 mg/kg in the assay with Staphylococcus aureus [15] was 100%. For the same compound, in the assay on Staphylococcus aureus [16], the survival at 30 mg/kg turned out to be 80%. Also, the Survival result in the assay on Staphylococcus aureus [17] was “inactive”. Further, the Activity in the assay with Staphylococcus aureus [18] is recorded as 2.7 ×10⁶ CFU/g. The result in the assay with Staphylococcus aureus [19], in the assay with Staphylococcus aureus [20], with Staphylococcus aureus [21] and in the assay with Staphylococcus aureus [22] was Active.
As to `C[C@]12C[C@@]34C=CC(=O)[C@@](C)(CCC(=O)Nc5c(O)ccc(C(=O)O)c5O)[C@@H]3[C@H](C[C@@H]1C4)O2`, the “antibacterial activity (disk diffusion, qualitative)” value with Staphylococcus aureus [1] is “Active”. The MIC in the assay with Staphylococcus aureus [3], in the assay with Staphylococcus aureus [4], in the assay with Staphylococcus aureus [5], with Staphylococcus aureus [6], in the assay on Staphylococcus aureus [7] and in the assay with Staphylococcus aureus [8] was 1 µg/mL (≈ 2.27 µM) throughout. The MIC in the assay with Staphylococcus aureus [9], in the assay on Staphylococcus aureus [10], in the assay on Staphylococcus aureus [11], in the assay with Staphylococcus aureus [12], in the assay with Staphylococcus aureus [13] and with Staphylococcus aureus [14] was 1 µg/mL (≈ 2.27 µM) in each case.
